Data from patent US20240139211A1, “METHODS AND COMPOSITIONS FOR TREATING AMYOTROPHIC LATERAL SCLEROSIS” (Amylyx Pharmaceuticals, Inc., priority 2022, published 2024).
Like-named read-outs stand apart in the source and are kept apart here.

Columns and labels:
[1] = system: CYP1A2 mRNA; assay: in vitro; conditions: human
[2] = molecular target: T1, hrCYP2C8 (Homo sapiens, UniProt P10632); assay: CYP reaction phenotyping with hrCYP2C8 (% remaining); type: in vitro ADME; conditions: for % Remaining of TA: hrCYP2C8 20 pmol CYP/mL, 5 μM TA, PB and TUDCA co-incubated
T1 sequence (P10632 1-490): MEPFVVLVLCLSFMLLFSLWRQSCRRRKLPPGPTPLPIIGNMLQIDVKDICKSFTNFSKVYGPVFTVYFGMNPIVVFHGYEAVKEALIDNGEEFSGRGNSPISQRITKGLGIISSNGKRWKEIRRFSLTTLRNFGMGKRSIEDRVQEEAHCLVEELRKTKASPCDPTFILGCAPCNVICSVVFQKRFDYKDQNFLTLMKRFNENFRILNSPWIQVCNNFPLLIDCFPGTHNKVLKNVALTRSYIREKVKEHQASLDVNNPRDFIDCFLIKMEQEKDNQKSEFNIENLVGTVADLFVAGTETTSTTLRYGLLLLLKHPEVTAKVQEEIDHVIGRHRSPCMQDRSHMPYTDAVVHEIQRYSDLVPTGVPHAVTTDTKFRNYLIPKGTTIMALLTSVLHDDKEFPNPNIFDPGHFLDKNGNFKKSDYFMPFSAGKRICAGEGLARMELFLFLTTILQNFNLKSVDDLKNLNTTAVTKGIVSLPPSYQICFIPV

[3] = molecular target: hrCYP2C9 (Homo sapiens, UniProt P11712); assay: CYP reaction phenotyping with hrCYP2C9 (% remaining); type: in vitro ADME; conditions: for % Remaining of TA: hrCYP2C9 20 pmol CYP/mL, 5 μM TA, PB and TUDCA co-incubated
[4] = molecular target: hrCYP3A4 (Homo sapiens, UniProt P08684); assay: CYP reaction phenotyping with hrCYP3A4 (% remaining); type: in vitro ADME; conditions: for % Remaining of TA: hrCYP3A4 20 pmol CYP/mL, 5 μM TA, PB and TUDCA co-incubated
[5] = CYP reaction phenotyping, CYP control (negative control without CYP enzymes), % remaining; type: in vitro ADME; conditions: CYP Control 0.1 mg protein/mL, 5 μM TA, PB and TUDCA co-incubated
Description: The percent remaining of TA was calculated using the following equation: […]

[6] = molecular target: CYPs in human liver microsomes (HLM) (Homo sapiens, UniProt P10635); conditions: 5 min
[7] = molecular target: CYPs in human liver microsomes (HLM) (Homo sapiens, UniProt P11712); conditions: 5 min
[8] = molecular target: T2, CYPs in human liver microsomes (HLM) (Homo sapiens, UniProt P20813); conditions: 1 h
T2 sequence (P20813 1-491): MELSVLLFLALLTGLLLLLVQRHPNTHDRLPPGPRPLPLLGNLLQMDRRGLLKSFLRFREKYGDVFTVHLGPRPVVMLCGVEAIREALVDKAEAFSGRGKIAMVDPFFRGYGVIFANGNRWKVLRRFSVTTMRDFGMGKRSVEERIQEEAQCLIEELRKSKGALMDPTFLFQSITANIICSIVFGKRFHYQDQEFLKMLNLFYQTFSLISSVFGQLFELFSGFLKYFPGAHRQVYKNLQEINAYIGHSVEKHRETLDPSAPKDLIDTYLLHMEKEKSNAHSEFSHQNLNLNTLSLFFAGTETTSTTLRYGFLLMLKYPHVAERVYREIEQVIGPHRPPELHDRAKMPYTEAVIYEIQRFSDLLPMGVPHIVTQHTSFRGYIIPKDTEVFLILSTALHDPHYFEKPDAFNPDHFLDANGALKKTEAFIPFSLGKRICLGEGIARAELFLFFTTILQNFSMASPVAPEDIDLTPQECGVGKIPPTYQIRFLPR

[9] = system: CYPs in human liver microsomes (HLM)
[10] = molecular target: T3, CYPs in human liver microsomes (HLM) (Homo sapiens, UniProt P10632); assay: CYP reaction phenotyping in HLM with chemical inhibitors (% remaining); conditions: +NADPH +montelukast (CYP2C8)
T3 sequence (P10632 1-490): T1 sequence (P10632 1-490)

[11] = molecular target: T2, CYPs in human liver microsomes (HLM); assay: as above; conditions: +NADPH +thio-TEPA (CYP2B6)
[12] = molecular target: T4, OCT2 (Homo sapiens, UniProt O15244); assay: in vitro
T4 sequence (O15244 1-555): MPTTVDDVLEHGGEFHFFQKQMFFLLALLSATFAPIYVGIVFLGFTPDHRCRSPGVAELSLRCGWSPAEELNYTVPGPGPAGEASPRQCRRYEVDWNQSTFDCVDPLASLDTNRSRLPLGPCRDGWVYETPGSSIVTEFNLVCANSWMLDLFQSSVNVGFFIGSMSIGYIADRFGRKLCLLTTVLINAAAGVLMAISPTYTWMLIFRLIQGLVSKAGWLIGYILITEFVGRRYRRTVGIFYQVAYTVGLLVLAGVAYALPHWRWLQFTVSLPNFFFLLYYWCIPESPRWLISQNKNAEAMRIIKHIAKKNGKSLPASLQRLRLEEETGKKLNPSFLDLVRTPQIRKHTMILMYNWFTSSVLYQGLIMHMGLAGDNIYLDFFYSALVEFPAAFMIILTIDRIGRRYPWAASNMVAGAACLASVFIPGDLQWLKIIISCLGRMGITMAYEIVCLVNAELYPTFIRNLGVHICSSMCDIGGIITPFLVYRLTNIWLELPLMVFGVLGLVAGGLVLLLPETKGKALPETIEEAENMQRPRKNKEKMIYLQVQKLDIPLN

Chain of hrCYP2C9 (P11712 whole entry): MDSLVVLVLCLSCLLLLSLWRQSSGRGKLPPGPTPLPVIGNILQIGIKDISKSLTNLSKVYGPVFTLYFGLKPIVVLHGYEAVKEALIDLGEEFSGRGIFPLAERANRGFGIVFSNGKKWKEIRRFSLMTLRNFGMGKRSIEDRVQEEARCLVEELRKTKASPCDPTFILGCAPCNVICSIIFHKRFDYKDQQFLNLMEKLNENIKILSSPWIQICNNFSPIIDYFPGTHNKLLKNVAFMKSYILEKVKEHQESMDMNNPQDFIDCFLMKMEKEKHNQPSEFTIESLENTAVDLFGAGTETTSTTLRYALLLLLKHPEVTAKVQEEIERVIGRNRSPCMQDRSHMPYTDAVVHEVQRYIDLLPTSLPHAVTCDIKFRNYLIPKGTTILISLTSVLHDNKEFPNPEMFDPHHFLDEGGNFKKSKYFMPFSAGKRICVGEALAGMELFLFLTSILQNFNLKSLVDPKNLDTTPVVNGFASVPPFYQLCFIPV
Chain of hrCYP3A4 (P08684 whole entry): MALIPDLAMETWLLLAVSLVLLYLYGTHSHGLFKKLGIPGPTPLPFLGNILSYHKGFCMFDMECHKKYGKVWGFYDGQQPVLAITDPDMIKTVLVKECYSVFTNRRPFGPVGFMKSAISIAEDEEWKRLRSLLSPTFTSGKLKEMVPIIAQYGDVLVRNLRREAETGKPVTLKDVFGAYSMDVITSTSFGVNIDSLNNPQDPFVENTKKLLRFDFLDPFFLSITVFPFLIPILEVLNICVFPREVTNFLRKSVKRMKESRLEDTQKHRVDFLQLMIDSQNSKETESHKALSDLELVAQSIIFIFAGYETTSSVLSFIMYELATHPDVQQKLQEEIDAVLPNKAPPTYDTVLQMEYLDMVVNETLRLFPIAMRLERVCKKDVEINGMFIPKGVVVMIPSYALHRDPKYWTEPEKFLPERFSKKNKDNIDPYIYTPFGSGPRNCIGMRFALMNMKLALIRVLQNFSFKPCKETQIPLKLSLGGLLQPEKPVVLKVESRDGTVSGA
Chain of CYPs in human liver microsomes (HLM) (Homo sapiens, UniProt P11712) (P11712 whole entry): as the sequence (P11712 whole entry) above
Chain of CYPs in human liver microsomes (HLM) (Homo sapiens, UniProt P10635) (P10635 whole entry): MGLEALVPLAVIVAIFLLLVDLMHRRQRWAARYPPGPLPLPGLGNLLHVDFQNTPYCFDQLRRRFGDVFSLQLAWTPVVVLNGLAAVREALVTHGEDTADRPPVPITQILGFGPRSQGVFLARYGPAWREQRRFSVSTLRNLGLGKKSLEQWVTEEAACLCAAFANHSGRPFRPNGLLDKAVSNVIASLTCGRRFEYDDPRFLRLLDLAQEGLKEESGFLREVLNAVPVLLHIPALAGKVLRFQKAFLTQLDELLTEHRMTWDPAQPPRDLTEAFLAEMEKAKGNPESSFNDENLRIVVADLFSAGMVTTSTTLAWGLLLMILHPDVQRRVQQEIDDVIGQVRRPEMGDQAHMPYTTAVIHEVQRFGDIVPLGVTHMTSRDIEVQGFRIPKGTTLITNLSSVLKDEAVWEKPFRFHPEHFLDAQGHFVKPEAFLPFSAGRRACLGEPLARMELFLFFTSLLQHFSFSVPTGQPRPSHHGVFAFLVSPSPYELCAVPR

C[C@H](CCC(=O)NCC(=O)O)[C@H]1CC[C@H]2[C@@H]3[C@@H](O)C[C@@H]4C[C@H](O)CC[C@]4(C)[C@H]3CC[C@]12C [Glycoursodeoxycholic acid, glycoursodeoxycholic acid]
EC50 at 72 h ([1]; hepatocyte cultures): 1.88 µM
fold induction at 72 h ([1]; hepatocyte cultures): 12.2

tauroursodeoxycholic acid [TUDCA]
% Remaining of TA ([2]; 0 min): 100%
% Remaining of TA ([2]; 5 min): 97.1%
% Remaining of TA ([2]; 10 min): 99.3%
% Remaining of TA ([2]; 20 min): 101%
% Remaining of TA ([2]; 30 min): 101%
% Remaining of TA ([2]; 60 min): 99.8%
% Remaining of TA ([3]; 0 min): 100%
% Remaining of TA ([3]; 5 min): 96.0%
% Remaining of TA ([3]; 10 min): 98.8%
% Remaining of TA ([3]; 20 min): 98.5%
% Remaining of TA ([3]; 30 min): 97.8%
% Remaining of TA ([3]; 60 min): 90.3%
% Remaining of TA ([4]; 0 min): 100%
% Remaining of TA ([4]; 5 min): 97.1%
% Remaining of TA ([4]; 10 min): 92.1%
% Remaining of TA ([4]; 20 min): 91.4%
% Remaining of TA ([4]; 30 min): 90.9%
% Remaining of TA ([4]; 60 min): 91.1%
% Remaining of TA ([5]; 0 min): 100%
% Remaining of TA ([5]; 5 min): 99.4%
% Remaining of TA ([5]; 10 min): 97.9%
% Remaining of TA ([5]; 20 min): 95.9%
% Remaining of TA ([5]; 30 min): 93.7%
% Remaining of TA ([5]; 60 min): 101%
% remaining of TA in HLM [6]: 101%
% remaining of TA in HLM [7]: 102%
% remaining of TA in HLM [8]: 102%
% remaining of TA in HLM ([9]; 5 min): 103%
% remaining of TA in HLM ([9]; 1 h): 105%
% remaining of TA in HLM ([10]; 5 min): 101%
% remaining of TA in HLM ([10]; 10 min): 103%
% remaining of TA in HLM ([10]; 20 min): 95.5%
% remaining of TA in HLM ([10]; 30 min): 105%
% remaining of TA in HLM ([10]; 60 min): 97.7%
% remaining of TA in HLM ([11]; 5 min): 112%
% remaining of TA in HLM ([11]; 10 min): 112%
% remaining of TA in HLM ([11]; 20 min): 122%
% remaining of TA in HLM ([11]; 30 min): 116%

O=C(O)CCCc1ccccc1 [PB, sodium phenylbutyrate]
% remaining after 60 minutes ([2]; human, 1 h, 5 µM, pH 7.4): greater than 90%
% remaining after 60 minutes ([3]; human, 1 h, 5 µM, pH 7.4): greater than 90%
% remaining after 60 minutes ([4]; human, 1 h, 5 µM, pH 7.4): greater than 90%

O=C(O)Cc1ccccc1 [Phenylacetic acid, phenylacetic acid]
potency estimated from few doses [12]: < 7500 µM
EC50 at 72 h [1]: 8.18 µM
